According to ChEMBL document CHEMBL1154540, “Synthesis of 10-substituted triazolyl artemisinins possessing anticancer activity via Huisgen 1,3-dipolar cylcoaddition” (2009):

Experiments:
B16 = experiment: Cytotoxicity against mouse B16 cells after 72 hrs by MTT colorimetric assay; type: functional; conditions: B16, 72 h
DLD-1 = experiment: Cytotoxicity against human DLD1 cells after 72 hrs by MTT colorimetric assay; type: functional; conditions: DLD-1, 72 h
SiHa = experiment: Cytotoxicity against human SiHa cells after 72 hrs by MTT colorimetric assay; type: functional
[1] = Cytotoxicity against human U87 cells after 72 hrs by MTT colorimetric assay; type: functional, U-87MG ATCC; conditions: U-87 MG
[2] = Cytotoxicity against human A172 cells after 72 hrs by MTT colorimetric assay; type: functional; conditions: A 172, 72 h
HeLa = experiment: Cytotoxicity against human HeLa cells after 72 hrs by MTT colorimetric assay; type: functional

Structure (SMILES) | GI50 (B16) [nM] | GI50 (DLD-1) [nM] | GI50 (SiHa) [nM] | GI50 [1] [nM] | GI50 [2] [nM] | GI50 (HeLa) [nM]
C=C(C)c1cn([C@@H]2O[C@@H]3O[C@@]4(C)CC[C@H]5[C@H](C)CC[C@@H]([C@H]2C)[C@@]35OO4)nn1 | 1320 | 23000 | 1130 | 830 | 1310 | 310
C[C@@H]1[C@@H](n2cc(-c3ccccc3)nn2)O[C@@H]2O[C@@]3(C)CC[C@H]4[C@H](C)CC[C@@H]1[C@@]24OO3 | 8780 | 29700 | 3220 | 2860 | 2500 | 720
COc1ccc(-c2cn([C@@H]3O[C@@H]4O[C@@]5(C)CC[C@H]6[C@H](C)CC[C@@H]([C@H]3C)[C@@]46OO5)nn2)cc1 | 900 | 6680 | 350 | 1220 | 1210 | 560
C[C@H]1[C@H](n2cc(-c3ccc(F)cc3)nn2)O[C@@H]2O[C@@]3(C)CC[C@H]4[C@H](C)CC[C@@H]1[C@@]24OO3 | 430 | 140 | 350 | 340 | 420 | 600
C[C@H]1[C@H](n2cc(-c3cccc(Cl)c3)nn2)O[C@@H]2O[C@@]3(C)CC[C@H]4[C@H](C)CC[C@@H]1[C@@]24OO3 | 60 | 14200 | 150 | 160 | 370 | 80
C[C@H]1[C@@H](N=[N+]=[N-])O[C@@H]2O[C@@]3(C)CC[C@H]4[C@H](C)CC[C@@H]1[C@@]24OO3 | > 50000 | 9440 | 1130 | 1970 | 2310 | 490
C[C@H]1[C@H](N=[N+]=[N-])O[C@@H]2O[C@@]3(C)CC[C@H]4[C@H](C)CC[C@@H]1[C@@]24OO3 | 1560 | > 50000 | 1470 | 1060 | 890 | 1930
Cc1ccc(-c2cn([C@@H]3O[C@@H]4O[C@@]5(C)CC[C@H]6[C@H](C)CC[C@@H]([C@H]3C)[C@@]46OO5)nn2)cc1 | 240 | 80 | 150 | 110 | 330 | 50
CCCCCc1ccc(-c2cn([C@@H]3O[C@@H]4O[C@@]5(C)CC[C@H]6[C@H](C)CC[C@@H]([C@H]3C)[C@@]46OO5)nn2)cc1 | 80 | 30 | 90 | 80 | 100 | 30
C[C@H]1[C@H](n2cc(-c3ccccc3)nn2)O[C@@H]2O[C@@]3(C)CC[C@H]4[C@H](C)CC[C@@H]1[C@@]24OO3 | 1250 | 12100 | 540 | 430 | 450 | 210
C[C@@H]1[C@@H](N=[N+]=[N-])O[C@@H]2O[C@@]3(C)CC[C@H]4[C@H](C)CC[C@@H]1[C@@]24OO3 | > 50000 | > 50000 | 9070 | 11200 | 16800 | > 50000
C[C@H]1[C@H](n2cc(-c3cc(F)cc(F)c3)nn2)O[C@@H]2O[C@@]3(C)CC[C@H]4[C@H](C)CC[C@@H]1[C@@]24OO3 | 160 | 22900 | 200 | 140 | 290 | 140
C[C@H]1[C@@H](n2cc(-c3ccccc3)nn2)O[C@@H]2O[C@@]3(C)CC[C@H]4[C@H](C)CC[C@@H]1[C@@]24OO3 | 300 | 520 | 260 | 230 | 220 | 130
CC(=O)O[C@H]1C(=O)[C@@]2(C)[C@H]([C@H](OC(=O)c3ccccc3)[C@]3(O)C[C@H](OC(=O)[C@H](O)[C@@H](NC(=O)c4ccccc4)c4ccccc4)C(C)=C1C3(C)C)[C@]1(OC(C)=O)CO[C@@H]1C[C@@H]2O [PACLITAXEL] | 10 | 10 | 30 | 20 | 10 | 20
